The text below walks through data of US20230233583A1, “USE OF PHYTOCANNABINOIDS FOR TREATING MULTIPLE MYELOMA” (priority 2020, published 2023).

One may read the IC50 as the concentration at which inhibition is half-maximal. In general, viability refers to a read-out of living cells in per cent, often relative to untreated cells.

Series [1] deals with H2AX levels in MM cell lines. The series is described as follows: Western blot analysis for H2AX. Format: cell-based, human. To be noted: 48 hours, daily; CBG, CBN, CBDV 25 μM, CBC 75 μM. The protocol: 4×10^4 cells were plated in 6 well plates and treated for 48 hours with daily administration of CBG (25 μM; FIG. 17), CBC (75 μM; FIG. 18), CBN (25 μM; FIG. 19) or CBDV (25 μM; FIG. 20). Densitometric analysis was carried out by evaluating two independent experiments by a Chemidoc using the Quantity One software (BioRad, Hercules, USA). H2AX densitometry values were normalized to GAPDH used as loading control and normalized with non-treated cells. Densitometric values shown are the mean±SE of two separate experiments.
Western blot analysis for H2AX: 4×10^4 cells were plated in 6-well plates and treated daily for 48 hours with CBG, CBN or CBDV (25 μM) or CBC (75 μM). Ten micrograms of the myeloma cell line lysates were then separated on a SDS-polyacrylamide gel, transferred onto Hybond-C extra membranes (GE Healthcare), blocked with 5% of Bovine Serum Albumin (BSA) in phosphate buffered saline (PBS)-Tween 20, immunoblotted with rabbit anti-phospho-histone H2AX (Ser139) (1:1000, #9718, Cell Signaling) and rabbit anti-glyceraldehyde-3-phosphate dehydrogenase (GAPDH, 1:3000, #2118, OriGene, Rockville, Md., USA) antibodies incubated overnight and then incubated with their respective HRP-conjugated anti-rabbit (1:2000, Cell Signaling) antibodies for 1 hour. The detection was performed using the LiteAblot™ PLUS or the LiteAblot™ TURBO (EuroClone, Milano, Italy) kits and densitometric analysis was carried out by evaluating three independent experiments by a Chemidoc using the Quantity One software (BioRad, Hercules, USA). H2AX densitometry values were normalized to GAPDH used as loading control and normalized with non-treated cells. Densitometric values shown are the mean±SE of three separate experiments.
Phytocannabinoids induce necrotic cell death in MM cell lines: To evaluate the cytotoxic mechanism induced by the phytocannabinoids, MM cell lines were treated daily with a cytotoxic dose for each phytocannabinoid (CBG: 25 μM; CBC 75 μM; CBN 25 μM; CBDV 25 μM) for 48 hours and then Annexin-V/PI cell positivity was evaluated by FACS analysis. The results evidenced that all of the phytocannabinoids induced necrotic cell death but had different efficacies (FIGS. 5-16). To confirm the necrotic cell death mechanism, MM cell lines were treated as above and DNA damage was evaluated by H2AX (a marker to examine the DNA damage produced and the subsequent repair of the DNA lesion) Western blot analysis and Comet assay (permits the analysis of DNA damage in single cell preparations). The result confirmed the DNA damage induced by the phytocannabinoid analysed. In particular, an increase of H2AX levels were observed by Western blot (FIGS. 17-20) and DNA damage by Comet assay that evidenced structures resembling comets in the treated cell lines (FIGS. 21-24).
Background: In western blotting, separated proteins are transferred to a membrane and probed.

Series [2] deals with RPMI. The series is described as follows: Invasion assay in co-culture of HuOB and RPMI. Type of series: cell-based, human. To be noted: for effect on MM cell invasion, in words: RPMI in co-culture with HuOB, 24 hours. As for the experimental part: Invasion assay: HuOB cells (1.5×10^4) were plated on the surface of Matrigel in a BioCoat™ Matrigel® Invasion Chamber, 8.0 μm PET Membrane (Coming®, cod. 354480) and incubated for two days. After, U266 and RPMI (2.5×10^4) were pre-stained with Calcein (1 μM) for two hours, then treated with CBG (12.5 μM), CBC (12.5 μM), CBN (12.5 μM) and CBDV (6.25 μM) and added in the chambers. MM cells with HuOB, untreated, were used as invasion positive control, MM cells without HuOB cells were used as negative control. After 24 hours, the number of MM cells that invaded the Matrigel were analysed via fluorescent microscope. Eight 10× sections images were counted for each chamber.
Invasion assay in co-culture of HuOB and MM cell lines: This study evaluated the effect of phytocannabinoids in reducing the invasion of MM cell lines toward HuOB. HuOB were plated on the surface of Matrigel in the BioCoat™ Matrigel® Invasion Chamber, 8.0 μm PET Membrane (Corning®, cod. 354480) and incubated for two days. After, U266 or RPMI were pre-stained with Calcein (10 μM) for two hours, then treated with CBG (25 μM), CBC (25 μM), CBN (25 μM) and CBDV (12.5 μM) and added in the chambers. MM cells with HuOB, untreated, were used as an invasion positive control, MM cells without HuOB cells were used as a negative control. After 24 hours, the number of MM cells that invaded the Matrigel were analysed via fluorescent microscope. Eight 10× sections images were counted for each chamber.

Series [3] has as its system RPMI. In words: MTT cytotoxicity assay in RPMI MM cell line. The settings on record: for IC50: Homo sapiens, 72 h, read-out: IC50 (μM) ± S.D.; for % VIABILITY ± S.D.: RPMI, daily, 72 hours, vs vehicle. As for the experimental part: MTT cytotoxicity assay: MM cell lines (4×10^4 cells/ml) were seeded in 96-well plates, in a final volume of 100 μl/well. After 24 hours, CBG, CBC, CBN, CBDV alone and in combination or vehicle were added at different concentrations, for 72 hours. At least six replicates were used for each treatment. At the indicated time point, cell viability was assessed by adding 0.8 mg/ml of 3-[4,5-dimethylthiazol-2-yl]-2,5 diphenyl tetrazolium bromide (MTT) (Sigma-Aldrich) to the media. After 3 hours, the plates were centrifuged, the supernatant was removed, and the pellet was solubilized with 100 μl/well dimethyl sulfoxide (DMSO). The absorbance of the samples against a background control (medium alone) was measured at 570 nm using an ELISA reader microliter plate (BioTek™ Instruments, Winooski, Vt., USA).
Cells were treated with different doses of CBG, CBC, CBN and CBDV (up to 100 μM) and percentage of cell viability was evaluated by the MTT assay.
The cannabinoids were administered daily for 72 hours, as in previous experiments at the desired doses. Each combination was evaluated in six wells and in two separate experiments. MTT assay was used to analyze the cell cytotoxicity. The values in the tables are represented as % of cell viability compared to vehicle-treated cells.
In general terms: Formazan colour is commonly taken as a measure of viable cells.

Another series can be described thus: in vitro. Format: cell-based, human. To be noted: human, HuOB, daily, 72 hours, vs vehicle, read-out: % VIABILITY ± S.D.; for viability at 72 h, 12.5 μM: single phytocannabinoid 12.5 μM; for viability at 72 h, 25 μM: single phytocannabinoid 25 μM. The protocol:
(§1) At least six replicates were used for each treatment.
(§2) Cell culture: The HuOB, an immortalized human osteoblast cell line derived from femoral head (INS-CI-1005, Inscreeex GmbH, Germany) was grown in HuOB Maintenance Medium (INS-ME-1006).
(§3) IC50 values, relative to daily administration, were obtained. The efficacy in reducing cell viability was generally highest for CBDV, followed by CBN, CBC and CBG.
(§4) Phytocannabinoid combinations in HuOB cell line viability: Before setting up the co-culture experiments with HuOB and MM cell lines, the less cytotoxic doses of phytocannabinoid combinations were evaluated in HuOB. […] The standard deviation of the data reported was <10%. […] Additionally, a triple combination with CBG, CBC and CBN at 12.5 μM for each phytocannabinoid, was performed (Table 9).

The subject of a further series is HuOB cell line. In words: cells. Type of series: cell-based, human. To be noted: for IC50: Homo sapiens, 72 h, read-out: IC50 (μM) ± S.D. As for the experimental part: as §1, §2, §3, §4
The mark [4] stands for this setting: single phytocannabinoid 12.5 μM.

Consider `CCCCCc1cc(O)c2c(c1)OC(C)(C)c1ccc(C)cc1-2` [CBN, 6,6,9-trimethyl-3-pentylbenzo[c]chromen-1-ol], for which the “H2AX levels by Western blot, in words” value in series [1] was “increased H2AX levels”. In addition, the “AVERAGE OF CELLS/square (MM cells that invaded the Matrigel)” value (shortened to “AVERAGE OF CELLS/square”) in the series on RPMI [2] amounted to 3.3 ± 0.1 CELLS/square. Moreover, the “effect on MM cell invasion, in words” value with RPMI [2] was “higher activity”. The concentration for half-maximal inhibition (IC50) with RPMI [3] turned out to be 23.6 ± 0.9 µM; with HuOB cell line it was 29 ± 3.07 µM. For the same compound, the “% VIABILITY ± S.D.” value with RPMI [3] (setting [4]) amounted to 102.6 ± 7.4%; in the series on RPMI [3] (single phytocannabinoid 25 μM), 81.1 ± 7.7%. Besides, the viability at 72 h, 12.5 μM in “in vitro” is 117 ± 7.7%. In addition, the viability at 72 h, 25 μM in the series “in vitro” stood at 81.7 ± 7.7%.

Turning to `C=C(C)[C@@H]1CCC(C)=C[C@H]1c1c(O)cc(CCC)cc1O` [CBDV, 2-[(1R,6R)-3-methyl-6-prop-1-en-2-ylcyclohex-2-en-1-yl]-5-propylbenzene-1,3-diol], in series [1], the “H2AX levels by Western blot, in words” value is on record as “increased H2AX levels”. Besides, in the series on RPMI [2], the “AVERAGE OF CELLS/square” value came out at 35.6 ± 2.4 CELLS/square. Moreover, the IC50 is 21.7 ± 1.1 µM in the series on RPMI [3] and 14.3 ± 1 µM in the series on HuOB cell line. Also, the entries for the “% VIABILITY ± S.D.” value in the series with RPMI [3] (setting [4]) and in the series with RPMI [3] (single phytocannabinoid 25 μM) were 70.2 ± 5.3% and 40.2 ± 2.4%, respectively. In “in vitro”, the viability at 72 h, 12.5 μM was 72.1 ± 5.8%. Also, in the series “in vitro”, the viability at 72 h, 25 μM was 21.2 ± 1.1%. The “cytotoxicity in HuOB cell line, in words” value with HuOB cell line (HuOB, 72 hours, daily administration) was “high cytotoxicity”.

As for `CCCCCc1cc(O)c(C/C=C(\C)CCC=C(C)C)c(O)c1` [CBG, 2-[(2E)-3,7-dimethylocta-2,6-dienyl]-5-pentylbenzene-1,3-diol], in series [1], the “H2AX levels by Western blot, in words” value is reported as “increased H2AX levels”. Moreover, in the series with RPMI [2], the “AVERAGE OF CELLS/square” value is given as 1.6 ± 0.2 CELLS/square. Besides, the “effect on MM cell invasion, in words” value in the series with RPMI [2] is “higher activity”. Moreover, the results for the IC50 in the series with RPMI [3] and in the series with HuOB cell line were 31.4 ± 1.9 µM and 44.8 ± 1.04 µM, respectively. Moreover, the “% VIABILITY ± S.D.” value is reported as 99.3 ± 8.2% in the series on RPMI [3] (setting [4]) and 69.1 ± 5.5% with RPMI [3] (single phytocannabinoid 25 μM). The viability at 72 h, 12.5 μM in “in vitro” turned out to be 104 ± 8.2%. The viability at 72 h, 25 μM in the series “in vitro” amounted to 96.4 ± 7.3%.

As for `CCCCCc1cc(O)c2c(c1)OC(C)(CCC=C(C)C)C=C2` (centres unmarked) [CBC, 2-methyl-2-(4-methylpent-3-enyl)-7-pentylchromen-5-ol], the “H2AX levels by Western blot, in words” value in series [1] is “increased H2AX levels”. Further, the “AVERAGE OF CELLS/square” value in the series with RPMI [2] was determined as 29.3 ± 1.7 CELLS/square. Moreover, the IC50 in the series with RPMI [3] stood at 49.6 ± 2.1 µM; in the series with HuOB cell line, 42.4 ± 1.05 µM. Further, the entries for the “% VIABILITY ± S.D.” value in the series on RPMI [3] (setting [4]) and in the series on RPMI [3] (single phytocannabinoid 25 μM) were 104.9 ± 3.6% and 98.3 ± 5.1%, respectively. Also, the viability at 72 h, 12.5 μM in “in vitro” worked out at 100 ± 8.3%. In “in vitro”, the viability at 72 h, 25 μM was determined as 99.8 ± 8.1%.
